Drawing on patent US6780872B2, “Tricyclic dihydropyrazolone and tricyclic dihydroisoxazolone potassium channel openers” (Abbott Laboratories, priority 2000, dated 2004), this text covers Emax and EC50 for five molecules.

The subject of this experiment is guinea-pig urinary bladder (GPB) cells. In words: Membrane hyperpolarization (MHP) assay, DiBAC(4)3 dye, FLIPR. To be noted: Cavia porcellus; for Emax: maximal steady-state hyperpolarization in GPB cells, normalized to response with 10 μM P1075 (=100%); for EC50: membrane hyperpolarization in GPB cells, concentration eliciting 50% of the maximal response of the test sample. The format is cell-based. The method, then: Compounds were evaluated for potassium channel opening activity using primary cultured guinea-pig urinary bladder (GPB) cells.
For the preparation of urinary bladder smooth muscle cells, urinary bladders were removed from male guinea-pigs (Hartley, Charles River, Wilmington, Mass.) weighing 300-400 g and placed in ice-cold Ca^2+-free Krebs solution (Composition, mM: KCl, 2.7; KH2PO4, 1.5; NaCl, 75; Na2HPO4, 9.6; Na2HPO4.7H2O, 8; MgSO4, 2; glucose, 5; HEPES, 10; pH 7.4). Cells were isolated by enzymatic dissociation as previously described with minor modifications in (Klockner, U. and Isenberg, G., Pflugers Arch. 1985, 405, 329-339), hereby incorporated by reference. The bladder was cut into small sections and incubated in 5 mL of the Kreb's solution containing 1 mg/mL collagenase (Sigma, St. Louis, Mo.) and 0.2 mg/mL pronase (Calbiochem, La Jolla, Calif.) with continuous stirring in a cell incubator for 30 minutes. The mixture was then centrifuged at 1300×g for 5 minutes, and the pellet resuspended in Dulbecco's PBS (GIBCO, Gaithersburg, Md.) and recentrifuged to remove residual enzyme. The cell pellet was resuspended in 5 mL growth media (composition: Dulbecco's modified Eagle's medium supplemented with 10% fetal bovine serum, 100 units/mL penicillin, 100 units/mL streptomycin and […] amphotericin B) and further dissociated by pipetting the suspension through a flame-polished Pasteur pipette and passing it through a polypropylene mesh membrane (Spectrum, Houston, Tex.). The cell density was adjusted to 100,000 cells/mL by resuspension in growth media. Cells were plated in clear-bottomed black 96-well plates (Packard) for membrane potential studies at a density of 20,000 cells/well and maintained in a cell incubator with 90% air: 10% CO2 until confluent. Cells were confirmed to be of smooth muscle type by cytoskeletal staining using a monoclonal mouse anti human-α-smooth muscle actin (Biomeda, Foster City, Calif.).
Functional activity at potassium channels was measured by evaluating changes in membrane potential using the bis-oxonol dye DiBAC(4)3 (Molecular Probes) in a 96-well cell-based kinetic assay system, Fluorescent Imaging Plate Reader (FLIPR) (K. S. Schroeder et al., J. Biomed. Screen., v. 1 pp. 7581 (1996)), hereby incorporated by reference. DiBAC(4) is an anionic potentiometric probe which partitions between cells and extracellular solution in a membrane potential-dependent manner. With increasing membrane potential (for example, K^+ depolarization), the probe further partitions into the cell; this is measured as an increase in fluorescence due to dye interaction with intracellular lipids and proteins. Conversely, decreasing membrane potential (hyperpolarization by potassium channel openers) evokes a decrease in fluorescence.
Confluent guinea-pig urinary bladder cells cultured in black clear-bottomed 96-well plates were rinsed twice with […] assay buffer (composition, mM: HEPES, 20; NaCl, 120; KCl, 2; CaCl2, 2; MgCl2, 1; glucose, 5; pH 7.4 at 25° C.) containing 5 μM DiBAC(4) and incubated with […] of the buffer in a cell incubator for 30 minutes at 37° C. to ensure dye distribution across the membrane. After recording the baseline fluorescence for 5 minutes, the reference or test compounds, prepared at 10 times the concentration in the assay buffer, were added directly to the wells. Changes in fluorescence were monitored for an additional 25 minutes. Hyperpolarization responses were corrected for any background noise and were normalized to the response observed with 10 μM of the reference compound P1075, N″-cyano-N-(tert-pentyl)-N′-(3-pyridinyl)guanidine, which was assigned as 100%. P1075 is a potent opener of smooth muscle KATP channels (Quast et al., Mol. Pharmacol., v. 43 pp. 474-481 (1993)) and was prepared using the procedures described in (Manley, J. Med. Chem. (1992) 35, 2327-2340), hereby incorporated by reference. […]

For orientation: Emax means the maximal effect, on the per cent scale that the assay sets. By EC50 is commonly meant the concentration that produces a half-maximal response. A low value points to a more potent agent. Regarding `Cn1[nH]c(=O)c2c1NC1=C(C(=O)C(C)(C)CC1)C2c1ccc(Cl)c(Cl)c1` (stereo not shown) [Example 24, 4-(3,4-dichlorophenyl)-1,6,6-trimethyl-4,7,8,9-tetrahydro-1H-pyrazolo[3,4-b]quinoline-3,5(2H,6H)-dione], the Emax stood at 82% and the EC50 was 180 nM.

In the case of `Cn1[nH]c(=O)c2c1NC1=C(C(=O)C(C)(C)CC1)C2c1ccc(F)c(-c2ccco2)c1` (stereo not shown) [Example 25, 4-[4-fluoro-3-(2-furyl)phenyl]-1,6,6-trimethyl-4,7,8,9-tetrahydro-1H-pyrazolo[3,4-b]quinoline-3,5(2H,6H)-dione], the Emax is 78% and the EC50 stood at 3200 nM.

As to `Cn1[nH]c(=O)c2c1NC1=C(C(=O)COC1)C2c1ccc(F)c(Br)c1` (stereo not shown) [Example 26, 4-(3-bromo-4-fluorophenyl)-1-methyl-1,2,4,9-tetrahydropyrano[3,4-b]pyrazolo[4,3-e]pyridine-3,5(6H,8H)-dione], the Emax stood at 99% and a half-maximal effect (EC50) was put at 50 nM.

The molecule `Cn1[nH]c(=O)c2c1NC1=C(C(=O)OCC1)C2c1ccc(F)c(Br)c1` (stereo not shown) [Example 31, 4-(3-bromo-4-fluorophenyl)-1-methyl-1,2,4,7,8,9-hexahydropyrano[4,3-b]pyrazolo[4,3-e]pyridine-3,5-dione] displayed an Emax of 96% and an EC50 of 760 nM.

Consider `Cn1[nH]c(=O)c2c1NC1=C(C(=O)OC1)C2c1ccc(F)c(Br)c1` (stereo not shown) [Example 32, 4-(3-bromo-4-fluorophenyl)-1-methyl-4,8-dihydro-1H-furo[3,4-b]pyrazolo[4,3-e]pyridine-3,5(2H,7H)-dione], for which the maximum response (Emax) came out at 73% and the concentration giving a half-maximal response (EC50) amounted to 520 nM.
